Experimental data published in patent US7087622B2, “Pyridone compounds as inhibitors of bacterial type III protein secreation systems” (priority 2004, dated 2006).

Legend:
Assay type in all cases: cell-based
[1] = system: SPI1 type III protein secretion system (SopE-Bla secretion); test: Primary assay: Type III protein secretion of the chimeric SopE-Bla polypeptide by Salmonella enterica (nitrocefin hydrolysis); conditions: read-out: SopE IC50(uM)
From the text: Primary assay: Type III protein secretion of the chimeric SopÉ-Bla polypeptide by Salmonella enterica. This procedure is a cell-based assay that measures the type III-dependent secretion by Salmonella enterica of a plasmid-encoded chimeric polypeptide whose synthesis can be regulated, and which is endowed with an enzymatic activity that can be monitored calorimetrically by hydrolysis of a substrate that is unable to penetrate into the bacterial cytoplasm within the time constraints of the reaction. Thus, the colorimetric reaction is not influenced by SopÉ-Bla polypeptide in the bacterial cytoplasm. Instead, it effectively measures the amount of polypeptide that has been secreted from the S. enterica cytoplasm to the extracellular medium via type III system protein secretion.
The SopÉ-Bla recombinant polypeptide consists of two functionally distinct domains spliced together. The N-terminus domain is encoded by a polynucleotide region specifying the signal for type III secretion of the SopE polypeptide of S. enterica, an effector of the SPI1 type III protein secretion system. The C-terminus domain of SopÉ-Bla consists of a 263 amino acid peptide sequence that corresponds to the TEM-1 β-lactamase expressed by plasmid pBR322 but without its N-terminal signal sequence. The TEM-1 β-lactamase part of the SopÉ-Bla chimeric polypeptide is used as a reporter enzyme. It is capable of hydrolyzing nitrocefin resulting in a product whose accumulation can be monitored by colorimetric detection. The secretion of the SopÉ-Bla chimeric polypeptide from the cytoplasm to the extracellular medium is dependent on type III protein secretion.
For this procedure, cells grown under conditions known to favor a functional SPI1 secretion system are induced for expression of the SopÉ-Bla protein and grown either in the presence or in the absence of putative inhibitors for determined time. Nitrocefin is then added to the various cultures and its hydrolysis are used for quantitation. An inhibitor of Type III protein secretion is generally a compound that reduces the signal of the enzymatic reaction by decreasing the amount of SopÉ-Bla secreted into the extracellular medium.

[2] = system: SPI1 type III protein secretion system (SipB secretion); test: Secondary assay: Type III-dependent protein secretion of the SipB polypeptide by S. enterica (immunoblot); conditions: Salmonella enterica, read-out: SipB IC50(uM)
Experimental: Secondary assay: Type III-dependent protein secretion of the SipB polypeptide by S. enterica. The SipB protein of S. enterica is another effector of the SPI1 type III protein secretion system from S. enterica. In this cell-based procedure, the Type III-dependent secretion of SipB from the bacterial cytoplasm to the extracellular medium was measured through its reactivity with a cognate mouse monoclonal.
Salmonella enterica cells growing either in the presence or in the absence of inhibitors are induced for the production of SipB. Following an established period of growth the cells are sedimented and the amount of SipB present in the supernatant is quantified with a scanning imager following application of immunoblot techniques. Detection may employ an anti-SipB mouse monoclonal antibody (e.g., obtained from Jorge Galan, SUNY at Stony Brook, N.Y.) followed by treatment with commercially available sheep anti-mouse polyclonal antibody conjugated with horseradish peroxidase. Thereafter the membrane is treated with a peroxidase chemiluminescent substrate and exposed to film for an appropriate exposure time. Inhibition may be measured relative to untreated controls.

[3] = system: type III protein secretion system of P. aeruginosa PA103 (ExoU secretion); test: Tertiary assay: Type III-dependent secretion of ExoU by P. aeruginosa PA103 (SDS-PAGE band quantitation); conditions: Pseudomonas aeruginosa, ExoU secreted into extracellular medium
From the text: Tertiary assay: inhibition of Type III protein secretion of effectors from a Pseudomonas aeruginosa system. Type III protein secretion is used by P. aeruginosa to secrete several essential virulence determinants. One effector of the type III protein secretion system of P. aeruginosa PA103 is the virulence determinants ExoU.
The amount of Type III-dependent secretion of ExoU by P. aeruginosa PA103 can be determined in a cell-based assay by quantification of the 73.9 kDa ExoU protein secreted into the extracellular medium. Such quantitation can be achieved by growing strain PA103 in a deferrated medium in the presence of nitrilotriacetic acid (an inducer of Type III protein secretion in P. aeruginosa) and either in the presence or absence of putative inhibitors. After a prolonged growth period, the cells are sedimented and the supernatants concentrated by ammonium sulfate precipitation. The proteins in the resuspended pellets are separated by electrophoresis on SDS-polyacrylamide gels. After staining gels with Colloidal Blue™, the 73.9 kDa ExoU band is quantitated by scanning through an imager. The effects of inhibitors on the intensity of the ExoU band may be measured relative to that of untreated controls.

COc1ccc(-c2cc(NC(=O)c3ccc(-c4ccccc4)cc3)c(=O)n(C(Cc3ccc(Cl)cc3)C(=O)O)c2)cc1OC (stereo not drawn) [Compound 41, 2-[3-[(Biphenyl-4-carbonyl)amino]-5-(3,4-dimethoxyphenyl)-2-oxo-2H-pyridin-1-yl]-3-(4-chlorophenyl)propionic acid]
IC50 [1]: 3.2 µM | IC50 [2]: 15.9 µM | IC50 [3]: 67.4 µM

O=C(Nc1cc(-c2cccc(O)c2)cn(C(Cc2ccc(Cl)cc2)C(=O)O)c1=O)c1ccc(C(F)(F)F)cc1 (stereo not drawn) [Compound 30, 3-(4-Chlorophenyl)-2-[5-(3-hydroxyphenyl)-2-oxo-3-(4-trifluoromethyl-benzoylamino)-2H-pyridin-1-yl]propionic acid]
IC50 [1]: 19.3 µM | IC50 [2]: 33.4 µM | IC50 [3]: > 100 µM

O=C(Nc1cc(-c2ccccc2Oc2ccccc2)cn(C(Cc2ccc(Cl)cc2)C(=O)O)c1=O)c1ccc(-c2ccccc2)cc1 (stereo not drawn) [Compound 49, 2-[3-[(Biphenyl-4-carbonyl)amino]-2-oxo-5-(2-phenoxyphenyl)-2H-pyridin-1-yl]-3-(4-chlorophenyl)propionic acid]
IC50 [1]: < 0.8 µM | IC50 [2]: 48 µM | IC50 [3]: 46.3 µM

O=C(Nc1cc(-c2ccc(-c3ccccc3)cc2)cn(C(Cc2ccc(Cl)cc2)C(=O)O)c1=O)c1ccc(-c2ccccc2)cc1 (stereo not drawn) [Compound 47, 2-{3-[(Biphenyl-4-carbonyl)amino]-5-biphenyl-4-yl-2-oxo-2H-pyridin-1-yl}-3-(4-chlorophenyl)propionic acid]
IC50 [1]: 1.4 µM | IC50 [2]: 55 µM | IC50 [3]: 39.4 µM

O=C(Nc1cc(-c2ccoc2)cn(C(Cc2ccc(Cl)cc2)C(=O)O)c1=O)c1ccc(-c2ccccc2)cc1 (stereo not drawn) [Compound 45, 2-{3-[(Biphenyl-4-carbonyl)amino]-5-furan-3-yl-2-oxo-2H-pyridin-1-yl}-3-(4-chlorophenyl)propionic acid]
IC50 [1]: 4 µM | IC50 [2]: > 100 µM | IC50 [3]: 49.4 µM

O=C(Nc1cc(-c2ccc(O)cc2)cn(C(Cc2ccc(Cl)cc2)C(=O)O)c1=O)c1ccc(-c2ccccc2)cc1 (stereo not drawn) [Compound 39, 2-[3-[(Biphenyl-4-carbonyl)amino]-5-(4-hydroxyphenyl)-2-oxo-2H-pyridin-1-yl]-3-(4-chlorophenyl)propionic acid]
IC50 [1]: 3.6 µM | IC50 [2]: > 100 µM | IC50 [3]: 80.5 µM

O=C(Nc1cc(-c2cccs2)cn(C(Cc2ccc(Cl)cc2)C(=O)O)c1=O)c1ccc(-c2ccccc2)cc1 (stereo not drawn) [Compound 50, 2-{3-[(Biphenyl-4-carbonyl)amino]-2-oxo-5-thiophen-2-yl-2H-pyridin-1-yl}-3-(4-chlorophenyl)propionic acid]
IC50 [1]: 6.4 µM | IC50 [2]: 27 µM | IC50 [3]: 51.4 µM

COC(=O)c1ccc(-c2cc(NC(=O)c3ccc(C(F)(F)F)cc3)c(=O)n([C@@H](Cc3ccccc3)C(=O)O)c2)cc1 [Compound 6, (S)-4-[1-(1-Carboxy-2-phenethyl)-6-oxo-5-(4-trifluoromethylbenzoylamino)-1,6-dihydro-pyridin-3-yl]benzoic acid methyl ester]
IC50 [1]: 53.6 µM | IC50 [2]: > 100 µM | IC50 [3]: > 100 µM

O=C(Nc1cc(-c2ccc(Cl)c(Cl)c2)cn(C(Cc2ccc(Cl)cc2)C(=O)O)c1=O)c1ccc(C(F)(F)F)cc1 (stereo not drawn) [Compound 20, 3-(4-Chlorophenyl)-2-[5-(3,4-dichloro-phenyl)-2-oxo-3-(4-trifluoromethyl-benzoylamino)-2H-pyridin-1-yl]propionic acid]
IC50 [1]: 2.7 µM | IC50 [2]: > 100 µM | IC50 [3]: > 100 µM

O=C(Nc1cc(-c2ccsc2)cn(C(Cc2ccc(Cl)cc2)C(=O)O)c1=O)c1ccc(-c2ccccc2)cc1 (stereo not drawn) [Compound 44, 2-{3-[(Biphenyl-4-carbonyl)amino]-2-oxo-5-thiophen-3-yl-2H-pyridin-1-yl}-3-(4-chlorophenyl)propionic acid]
IC50 [1]: 2.8 µM | IC50 [2]: > 100 µM | IC50 [3]: > 100 µM

O=C(Nc1cc(-c2ccc3[nH]ccc3c2)cn(C(Cc2ccc(Cl)cc2)C(=O)O)c1=O)c1ccc(-c2ccccc2)cc1 (stereo not drawn) [Compound 43, 2-[3-[(Biphenyl-4-carbonyl)amino]-5-(1H-indol-5-yl)-2-oxo-2H-pyridin-1-yl]-3-(4-chlorophenyl)propionic acid]
IC50 [1]: 1.9 µM | IC50 [2]: > 100 µM | IC50 [3]: 28 µM

O=C(Nc1cc(-c2ccc(C(F)(F)F)cc2)cn(C(Cc2ccc(Cl)cc2)C(=O)O)c1=O)c1ccc(-c2ccccc2)cc1 (stereo not drawn) [Compound 38, 2-[3-[(Biphenyl-4-carbonyl)amino]-2-oxo-5-(4-trifluoromethylphenyl)-2H-pyridin-1-yl]-3-(4-chlorophenyl)propionic acid]
IC50 [1]: 1.2 µM | IC50 [2]: 3.1 µM | IC50 [3]: 21.3 µM

O=C(Nc1cc(-c2ccc(F)cc2F)cn(C(Cc2ccc(Cl)cc2)C(=O)O)c1=O)c1ccc(C(F)(F)F)cc1 (stereo not drawn) [Compound 21, 3-(4-Chlorophenyl)-2-[5-(2,4-difluorophenyl)-2-oxo-3-(4-trifluoromethyl-benzoylamino)-2H-pyridin-1-yl]propionic acid]
IC50 [1]: 13.5 µM | IC50 [2]: 79 µM | IC50 [3]: 61.2 µM

O=C(Nc1cc(-c2ccc3ccccc3c2)cn(C(Cc2ccc(Cl)cc2)C(=O)O)c1=O)c1ccc(-c2ccccc2)cc1 (stereo not drawn) [Compound 42, 2-{3-[(Biphenyl-4-carbonyl)amino]-5-naphthalen-2-yl-2-oxo-2H-pyridin-1-yl}-3-(4-chlorophenyl)propionic acid]
IC50 [1]: 1.1 µM | IC50 [2]: 76.2 µM | IC50 [3]: 41.3 µM

O=C(Nc1cc(-c2ccc(F)cc2)cn(C(Cc2ccc(Cl)cc2)C(=O)O)c1=O)c1ccc(Oc2ccccc2)cc1 (stereo not drawn) [Compound 51, 3-(4-Chlorophenyl)-2-[5-(4-fluorophenyl)-2-oxo-3-(4-phenoxybenzoylamino)-2H-pyridin 1-yl]propionic acid]
IC50 [1]: 4.9 µM | IC50 [2]: > 100 µM | IC50 [3]: > 100 µM

O=C(Nc1cc(-c2ccc(F)cc2)cn(C(Cc2ccc(Cl)cc2)C(=O)O)c1=O)c1ccc(-c2ccccc2)cc1 (stereo not drawn) [Compound 35, 2-[3-[(Biphenyl-4-carbonyl)amino]-5-(4-fluorophenyl)-2-oxo-2H-pyridin-1-yl]-3-(4-chlorophenyl)propionic acid]
IC50 [1]: 2.3 µM | IC50 [2]: 58.4 µM | IC50 [3]: 7.5 µM

O=C(Nc1cc(-c2ccc(Oc3ccccc3)cc2)cn(C(Cc2ccc(Cl)cc2)C(=O)O)c1=O)c1ccc(C(F)(F)F)cc1 (stereo not drawn) [Compound 18, 3-(4-Chlorophenyl)-2-[2-oxo-5-(4-phenoxyphenyl)-3-(4-trifluoromethyl-benzoylamino)-2H-pyridin-1-yl]propionic acid]
IC50 [1]: 2.3 µM | IC50 [2]: > 100 µM

O=C(Nc1cc(-c2cncnc2)cn([C@@H](Cc2ccccc2)C(=O)O)c1=O)c1ccc(C(F)(F)F)cc1 [Compound 7, (S)-2-[2-Oxo-5-pyrimidin-5-yl-3-(4-trifluoromethylbenzoylamino)-2H-pyridin-1-yl]-3-phenylpropionic acid]
IC50 [1]: 82.3 µM | IC50 [2]: > 100 µM

O=C(Nc1cc(-c2cc3ccccc3s2)cn(C(Cc2ccc(Cl)cc2)C(=O)O)c1=O)c1ccc(C(F)(F)F)cc1 (stereo not drawn) [Compound 26, 2-[5-Benzo[b]thiophen-2-yl-2-oxo-3-(4-trifluoromethylbenzoylamino)-2H-pyridin-1-yl]-3-(4-chlorophenyl)propionic acid]
IC50 [1]: 2.4 µM | IC50 [2]: > 100 µM
